# From US9453031B2, “Chemical entities” (Fundación Centro Nacional de Investigaciones Oncológicas …, priority 2013, dated 2016)
# Target: DNA-PK (Homo sapiens (Human), UniProt P78527)
# Assay: DNAPK activity assay (ADP Hunter Plus)
# Type: biochemical
# Settings: 75 μM ATP
# Protocol: The kinase activity was measured by using the commercial ADP Hunter™ Plus assay available from DiscoveRx (#90-0083), which is a homogeneous assay to measure the accumulation of ADP, a universal product of kinase activity. The enzyme, DNA-PK was purchased from Promega (#V5811). The assay was done following the manufacturer recommendations with slight modifications: Mainly the kinase buffer was replace by 15 mM HEPES, pH 7.5, 10 mM MgCl2, 20 mM NaCl, 1 mM EGTA, 0.1 mg/mL BGG, 0.02% Tween 20. The DNA-PK was assayed in a titration experiment to determine the optimal protein concentration for the inhibition assay. To calculate the […] of the Compounds, serial 1:3 dilutions of the compounds were added to the enzyme at a fixed concentration (2 U/μL). The enzyme was preincubated with the inhibitor and 200 μM DNA substrate and then ATP was added to a final 75 μM concentration. Reaction was carried out for 1 hour at 37° C. Reagent A and B were sequentially added to the wells and plates were incubated for 30 min at RT. Fluorescence counts were read in a EnVision instrument (Perkin Elmer) with the recommended settings (550 and 590 nm as excitation and emission wavelengths, respectively).
row,Compound,IC50
1,Cc1cc2c(-c3nc4c(c(C5(S(C)(=O)=O)CCC5)n3)OC[C@@H]3COCCN43)cccc2[nH]1 [Example 93],10 µM
2,CNc1nc2ccc(Cl)cc2n1-c1nc2c(c(C3(S(C)(=O)=O)CC3)n1)OC[C@@H]1COCCN21 [Example 87],0.21 µM
3,CS(=O)(=O)C1(c2nc(-c3ccnc4[nH]ccc34)nc3c2OC[C@@H]2COCCN32)CCOCC1 [Example 30],25 µM
4,CNc1nc2cc(F)ccc2n1-c1nc2c(c(C3(S(C)(=O)=O)CCC3)n1)OC[C@@H]1COCCN21 [Example 96],10 µM
5,CC(C)(c1nc(-n2c(N3CCOCC3)nc3ccccc32)nc2c1OC[C@@H]1COCCN21)S(C)(=O)=O [Example 73],10 µM
6,CNc1nc2ccc(Cl)cc2n1-c1nc2c(c(C(C)(C)S(C)(=O)=O)n1)OC[C@@H]1COCCN21 [Example 81],10 µM
7,CS(=O)(=O)C1(c2nc(-c3cccc4[nH]ccc34)nc3c2OC[C@@H]2COCCN32)CC1 [Example 6],4.52 µM
8,CC(C)(c1nc(-n2c(N)nc3ccccc32)nc2c1OC[C@@H]1COCCN21)S(C)(=O)=O [Example 70],0.741 µM
9,CNc1nc2cc(Cl)ccc2n1-c1nc2c(c(C3(S(C)(=O)=O)CC3)n1)OC[C@@H]1COCCN21 [Example 86],10 µM
10,Cc1cc2c(-c3nc4c(c(C5(S(C)(=O)=O)CC5)n3)OC[C@@H]3COCCN43)cccc2[nH]1 [Example 109],10 µM
11,CS(=O)(=O)C1(c2nc(-c3ccc(F)c4[nH]ccc34)nc3c2OC[C@@H]2COCCN32)CC1 [Example 110],10 µM
12,CNc1nc2ccccc2n1-c1nc2c(c(C3(S(C)(=O)=O)CC3)n1)OC[C@@H]1COCCN21 [Example 66],2.41 µM
13,CC(C)(c1nc(-c2cc(F)cc3[nH]ccc23)nc2c1OC[C@@H]1COCCN21)S(C)(=O)=O [Example 71],10 µM
14,CNc1nc2ccccc2n1-c1nc2c(c(C3(S(C)(=O)=O)CCC3)n1)OC[C@@H]1COCCN21 [Example 92],6.15 µM

# Target: PI3K (p110α/p85α) (Homo sapiens (Human), UniProt P42336)
# Sequence (P42336 whole entry): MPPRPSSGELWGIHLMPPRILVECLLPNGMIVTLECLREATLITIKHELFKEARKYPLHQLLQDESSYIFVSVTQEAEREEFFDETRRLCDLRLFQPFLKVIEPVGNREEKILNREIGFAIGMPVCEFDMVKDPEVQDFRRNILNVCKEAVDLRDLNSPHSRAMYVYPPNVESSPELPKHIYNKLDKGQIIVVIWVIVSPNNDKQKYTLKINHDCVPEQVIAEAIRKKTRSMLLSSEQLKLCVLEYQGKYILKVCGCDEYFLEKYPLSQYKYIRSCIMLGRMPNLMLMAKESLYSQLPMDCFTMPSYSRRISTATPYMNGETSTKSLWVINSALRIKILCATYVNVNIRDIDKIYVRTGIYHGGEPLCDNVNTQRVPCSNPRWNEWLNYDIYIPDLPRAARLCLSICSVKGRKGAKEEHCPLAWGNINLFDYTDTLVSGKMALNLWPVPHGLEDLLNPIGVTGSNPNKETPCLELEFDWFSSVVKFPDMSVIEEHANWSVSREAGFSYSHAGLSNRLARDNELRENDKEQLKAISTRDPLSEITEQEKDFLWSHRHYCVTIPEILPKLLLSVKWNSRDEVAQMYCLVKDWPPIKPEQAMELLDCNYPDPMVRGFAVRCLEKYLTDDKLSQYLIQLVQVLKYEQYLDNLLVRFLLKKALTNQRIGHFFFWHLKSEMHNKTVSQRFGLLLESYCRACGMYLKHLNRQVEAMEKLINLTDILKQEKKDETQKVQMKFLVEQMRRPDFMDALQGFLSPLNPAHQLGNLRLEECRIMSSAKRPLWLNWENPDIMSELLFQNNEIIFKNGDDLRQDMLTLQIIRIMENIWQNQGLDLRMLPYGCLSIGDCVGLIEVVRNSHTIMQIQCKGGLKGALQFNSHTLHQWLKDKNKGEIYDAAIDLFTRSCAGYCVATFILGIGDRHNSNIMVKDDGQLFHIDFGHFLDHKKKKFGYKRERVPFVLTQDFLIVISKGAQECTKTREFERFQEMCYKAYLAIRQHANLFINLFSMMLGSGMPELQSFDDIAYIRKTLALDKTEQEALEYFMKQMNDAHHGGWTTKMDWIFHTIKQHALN
# Sequence (P27986 whole entry partner): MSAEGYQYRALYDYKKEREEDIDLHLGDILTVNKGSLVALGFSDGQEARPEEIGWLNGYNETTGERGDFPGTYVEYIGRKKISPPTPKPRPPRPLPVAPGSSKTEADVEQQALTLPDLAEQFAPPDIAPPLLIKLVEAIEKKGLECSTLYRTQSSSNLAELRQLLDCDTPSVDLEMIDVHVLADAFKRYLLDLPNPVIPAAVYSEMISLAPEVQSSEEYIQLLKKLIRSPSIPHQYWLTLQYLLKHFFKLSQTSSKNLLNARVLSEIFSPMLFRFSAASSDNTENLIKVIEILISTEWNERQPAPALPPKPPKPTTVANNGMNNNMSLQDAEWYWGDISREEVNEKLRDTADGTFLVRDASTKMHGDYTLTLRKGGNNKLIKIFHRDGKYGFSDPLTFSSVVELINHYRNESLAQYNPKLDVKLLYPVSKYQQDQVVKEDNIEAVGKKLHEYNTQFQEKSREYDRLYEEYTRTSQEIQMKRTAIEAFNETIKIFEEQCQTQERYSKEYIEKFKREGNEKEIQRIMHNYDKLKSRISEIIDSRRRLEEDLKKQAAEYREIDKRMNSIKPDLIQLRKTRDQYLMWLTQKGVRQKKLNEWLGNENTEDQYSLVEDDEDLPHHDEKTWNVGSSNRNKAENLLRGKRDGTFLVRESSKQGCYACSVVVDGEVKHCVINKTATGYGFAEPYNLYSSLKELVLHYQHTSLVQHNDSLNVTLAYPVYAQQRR
# Assay: PI3K alpha activity assay (ADP Hunter Plus)
# Type: biochemical
# Settings: 50 μM ATP, 30 μM PIP2; read-out: PI3Kα IC50
# Protocol: The kinase activity was measured by using the commercial ADP Hunter™ Plus assay available from DiscoveRx (#33-016), which is a homogeneous assay to measure the accumulation of ADP, a universal product of kinase activity. […] The reaction was carried out for 1 hour at 25° C. Reagent A and B were sequentially added to the wells and plates were incubated for 30 min at 37° C. Fluorescence counts were read in a Victor instrument (Perkin Elmer) with the recommended settings (544 and 580 nm as excitation and emission wavelengths, respectively).
row,Compound,IC50
1,Cc1cc2c(-c3nc4c(c(C5(S(C)(=O)=O)CCC5)n3)OC[C@@H]3COCCN43)cccc2[nH]1 [Example 93],7.44 µM
2,CNc1nc2ccc(Cl)cc2n1-c1nc2c(c(C3(S(C)(=O)=O)CC3)n1)OC[C@@H]1COCCN21 [Example 87],50 µM
3,CS(=O)(=O)C1(c2nc(-c3ccnc4[nH]ccc34)nc3c2OC[C@@H]2COCCN32)CCOCC1 [Example 30],2.5 µM
4,CNc1nc2cc(F)ccc2n1-c1nc2c(c(C3(S(C)(=O)=O)CCC3)n1)OC[C@@H]1COCCN21 [Example 96],50 µM
5,CC(C)(c1nc(-n2c(N3CCOCC3)nc3ccccc32)nc2c1OC[C@@H]1COCCN21)S(C)(=O)=O [Example 73],50 µM
6,CNc1nc2ccc(Cl)cc2n1-c1nc2c(c(C(C)(C)S(C)(=O)=O)n1)OC[C@@H]1COCCN21 [Example 81],50 µM
7,CS(=O)(=O)C1(c2nc(-c3cccc4[nH]ccc34)nc3c2OC[C@@H]2COCCN32)CC1 [Example 6],4.5 µM
8,CC(C)(c1nc(-n2c(N)nc3ccccc32)nc2c1OC[C@@H]1COCCN21)S(C)(=O)=O [Example 70],0.87 µM
9,CNc1nc2cc(Cl)ccc2n1-c1nc2c(c(C3(S(C)(=O)=O)CC3)n1)OC[C@@H]1COCCN21 [Example 86],50 µM
10,Cc1cc2c(-c3nc4c(c(C5(S(C)(=O)=O)CC5)n3)OC[C@@H]3COCCN43)cccc2[nH]1 [Example 109],5.69 µM
11,CS(=O)(=O)C1(c2nc(-c3ccc(F)c4[nH]ccc34)nc3c2OC[C@@H]2COCCN32)CC1 [Example 110],50 µM
12,CNc1nc2ccccc2n1-c1nc2c(c(C3(S(C)(=O)=O)CC3)n1)OC[C@@H]1COCCN21 [Example 66],7.17 µM
13,CC(C)(c1nc(-c2cc(F)cc3[nH]ccc23)nc2c1OC[C@@H]1COCCN21)S(C)(=O)=O [Example 71],1.08 µM
14,CNc1nc2ccccc2n1-c1nc2c(c(C3(S(C)(=O)=O)CCC3)n1)OC[C@@H]1COCCN21 [Example 92],2.75 µM

# Target: mTOR (Homo sapiens (Human), UniProt P42345)
# Sequence (P42345 1360-2549): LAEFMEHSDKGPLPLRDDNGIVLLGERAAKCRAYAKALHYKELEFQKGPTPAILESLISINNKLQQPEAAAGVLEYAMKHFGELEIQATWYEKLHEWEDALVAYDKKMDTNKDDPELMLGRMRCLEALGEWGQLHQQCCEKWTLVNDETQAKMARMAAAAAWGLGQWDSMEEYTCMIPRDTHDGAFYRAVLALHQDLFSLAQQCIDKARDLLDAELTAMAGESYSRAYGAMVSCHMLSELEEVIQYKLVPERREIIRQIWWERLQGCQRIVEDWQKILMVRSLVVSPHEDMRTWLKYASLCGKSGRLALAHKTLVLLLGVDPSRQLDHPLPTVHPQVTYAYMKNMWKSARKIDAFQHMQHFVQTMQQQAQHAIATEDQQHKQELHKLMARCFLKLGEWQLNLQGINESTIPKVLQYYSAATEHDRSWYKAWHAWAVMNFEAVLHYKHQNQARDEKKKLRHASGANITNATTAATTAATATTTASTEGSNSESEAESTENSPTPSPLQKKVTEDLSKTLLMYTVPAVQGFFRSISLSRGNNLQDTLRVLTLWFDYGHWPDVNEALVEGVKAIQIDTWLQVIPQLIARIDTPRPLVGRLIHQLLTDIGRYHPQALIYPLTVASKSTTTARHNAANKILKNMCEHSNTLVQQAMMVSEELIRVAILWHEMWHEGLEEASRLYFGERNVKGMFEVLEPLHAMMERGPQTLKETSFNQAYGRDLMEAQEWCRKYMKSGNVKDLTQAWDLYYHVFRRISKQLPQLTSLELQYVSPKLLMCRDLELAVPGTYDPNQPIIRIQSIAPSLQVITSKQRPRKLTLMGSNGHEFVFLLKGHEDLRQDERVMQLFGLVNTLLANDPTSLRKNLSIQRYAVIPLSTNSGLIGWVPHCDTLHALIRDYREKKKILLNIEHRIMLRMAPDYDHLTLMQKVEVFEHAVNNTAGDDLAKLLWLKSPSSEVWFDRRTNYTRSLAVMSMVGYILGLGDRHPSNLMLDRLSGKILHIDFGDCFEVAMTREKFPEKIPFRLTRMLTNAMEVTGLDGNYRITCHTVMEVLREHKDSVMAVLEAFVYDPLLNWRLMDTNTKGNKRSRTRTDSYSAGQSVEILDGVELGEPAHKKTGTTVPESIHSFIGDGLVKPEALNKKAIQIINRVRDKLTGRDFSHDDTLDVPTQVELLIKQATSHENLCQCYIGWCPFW
# Assay: mTOR activity assay (LanthaScreen)
# Type: biochemical
# Settings: not given
# Protocol: The enzymatic mTOR activity was measured using a LanthaScreen™ kinase activity assay (Invitrogen). The enzyme was purchased from Invitrogen (PV4754), as well as the GFP-labelled substrate (4EBP1-GFP; PV4759) and the Tb-antip4EBP1(pThr46) antibody (PV4757). The assay was performed in 50 Mm HEPES buffer, pH 7.5, containing 1.5 mM MnCl2, 10 mM MgCl2, 1 mM EGTA, 2.5 mM DTT and 0.01% Tween-20. The concentration of the assay components were the following: 0.24 nM mTOR kinase, 400 nM 4EBP1-GFP, […] and serial dilutions of the compound (inhibitor) to be evaluated. After 1 h incubation at room temperature, 20 mM EDTA was used to stop the reaction and terbium-labelled antibody (4 nM) added to detect phosphorylated product. The antibody associates with the phosphorylated product resulting in an increased TR-FRET value. The TR-FRET value (a dimensionless number) was calculated as the ratio of the acceptor signal (GFP, emission at 520 nm) to the donor signal (terbium, emission at 495 nm).
row,Compound,IC50
1,Cc1cc2c(-c3nc4c(c(C5(S(C)(=O)=O)CCC5)n3)OC[C@@H]3COCCN43)cccc2[nH]1 [Example 93],0.117 µM
2,CNc1nc2ccc(Cl)cc2n1-c1nc2c(c(C3(S(C)(=O)=O)CC3)n1)OC[C@@H]1COCCN21 [Example 87],10 µM
3,CS(=O)(=O)C1(c2nc(-c3ccnc4[nH]ccc34)nc3c2OC[C@@H]2COCCN32)CCOCC1 [Example 30],4.68 µM
4,CNc1nc2cc(F)ccc2n1-c1nc2c(c(C3(S(C)(=O)=O)CCC3)n1)OC[C@@H]1COCCN21 [Example 96],6.08 µM
5,CC(C)(c1nc(-n2c(N3CCOCC3)nc3ccccc32)nc2c1OC[C@@H]1COCCN21)S(C)(=O)=O [Example 73],10 µM
6,CNc1nc2ccc(Cl)cc2n1-c1nc2c(c(C(C)(C)S(C)(=O)=O)n1)OC[C@@H]1COCCN21 [Example 81],5.55 µM
7,CS(=O)(=O)C1(c2nc(-c3cccc4[nH]ccc34)nc3c2OC[C@@H]2COCCN32)CC1 [Example 6],0.558 µM
8,CC(C)(c1nc(-n2c(N)nc3ccccc32)nc2c1OC[C@@H]1COCCN21)S(C)(=O)=O [Example 70],0.226 µM
9,CNc1nc2cc(Cl)ccc2n1-c1nc2c(c(C3(S(C)(=O)=O)CC3)n1)OC[C@@H]1COCCN21 [Example 86],3.41 µM
10,Cc1cc2c(-c3nc4c(c(C5(S(C)(=O)=O)CC5)n3)OC[C@@H]3COCCN43)cccc2[nH]1 [Example 109],0.224 µM
11,CS(=O)(=O)C1(c2nc(-c3ccc(F)c4[nH]ccc34)nc3c2OC[C@@H]2COCCN32)CC1 [Example 110],10 µM
12,CNc1nc2ccccc2n1-c1nc2c(c(C3(S(C)(=O)=O)CC3)n1)OC[C@@H]1COCCN21 [Example 66],0.854 µM
13,CC(C)(c1nc(-c2cc(F)cc3[nH]ccc23)nc2c1OC[C@@H]1COCCN21)S(C)(=O)=O [Example 71],0.0993 µM
14,CNc1nc2ccccc2n1-c1nc2c(c(C3(S(C)(=O)=O)CCC3)n1)OC[C@@H]1COCCN21 [Example 92],1.24 µM

# Target: ATR (Homo sapiens (Human), UniProt Q13535)
# Assay: Cellular ATR inhibition, western blot of CHK1(S345) phosphorylation in hydroxyurea treated cells
# Type: cell-based
# Settings: HT29 cells, hydroxyurea 2.5 mM
# Protocol: In addition to the selective system described above, Example compounds presented here were screened for their ability to inhibit intracellular ATR using a western blot assay to detect phosphorylation of the ATR substrate CHK1(S345) in hydroxyurea treated cells. HT29 cells are plated at 500,000 cells per well in 6-well plates in RPMI media (Sigma R6504) supplemented with 10% foetal bovine serum (Sigma F7524), Penicillin/Streptomycin solution diluted 1:100 (Gibco 15070-063), and fungizone (Gibco, 15290-018), and allowed to adhere overnight at 37° C. in 5% CO2. Compounds are then added to the cell media from a final concentration of 10 μM in 3-fold serial dilutions and the cells are incubated at 37° C. in 5% CO2. After 15 min, hydroxyurea (Sigma H8627) is added to a final concentration of 2.5 mM. After 30 min of treatment with hydroxyurea, the cells are washed in PBS, lysed adding 50 μl of in protein lysis buffer (50 mM Tris pH 7.5, 150 mM NaCl, 1% IGEPAL CO-630 (Sigma, Ref. 542334-100G-A), Phospho Stop (Roche, Ref. 04906837001) and Complete Mini EDTA free (Roche, Ref. 11836170001)). The protein content of the lysates was determined by the modified method of Bradford (Sigma, Ref. B6916). The proteins were resolved by SDS-PAGE and transferred to nitrocellulose membrane (VWR International Eurolab, Ref. 732-4007). The membranes were incubated overnight at 4° C. with antibodies specific for total CHK1 (Santa Cruz Biotechnology, sc-8404), phosphoserine-345 CHK1 (Cell Signaling Technology #2348) they were washed and then incubated with IRDye800 conjugated anti-mouse (Pierce/Cultek, 35521) and Alexa Fluor 680 goat anti-rabbit IgG secondary antibodies (Invitrogen, A21076). The bands were visualized and quantified using an Odyssey infrared imaging system (Li-Cor Biosciences). The percentage of phosphorylated CHK1 vs total CHK1 in cells treated with hydroxyurea was taken as hundred percent of phosphorylation. The percentage of CHK1 phosphorylation is finally plotted against concentration for each compound and EC50s for intracellular ATR inhibition are calculated using ActivityBase from IDBS.
row,Compound,EC50
1,Cc1cc2c(-c3nc4c(c(C5(S(C)(=O)=O)CCC5)n3)OC[C@@H]3COCCN43)cccc2[nH]1 [Example 93],0.1 to 1 µM
2,CS(=O)(=O)C1(c2nc(-c3ccnc4[nH]ccc34)nc3c2OC[C@@H]2COCCN32)CCOCC1 [Example 30],0.1 to 1 µM
3,CS(=O)(=O)C1(c2nc(-c3cccc4[nH]ccc34)nc3c2OC[C@@H]2COCCN32)CC1 [Example 6],0.1 to 1 µM
4,Cc1cc2c(-c3nc4c(c(C5(S(C)(=O)=O)CC5)n3)OC[C@@H]3COCCN43)cccc2[nH]1 [Example 109],0.1 to 1 µM
5,CS(=O)(=O)C1(c2nc(-c3ccc(F)c4[nH]ccc34)nc3c2OC[C@@H]2COCCN32)CC1 [Example 110],> 1 µM
6,CNc1nc2ccccc2n1-c1nc2c(c(C3(S(C)(=O)=O)CC3)n1)OC[C@@H]1COCCN21 [Example 66],0.1 to 1 µM
7,CC(C)(c1nc(-c2cc(F)cc3[nH]ccc23)nc2c1OC[C@@H]1COCCN21)S(C)(=O)=O [Example 71],< 0.1 µM
8,CNc1nc2ccccc2n1-c1nc2c(c(C3(S(C)(=O)=O)CCC3)n1)OC[C@@H]1COCCN21 [Example 92],< 0.1 µM

# Same assay, conditions: HT29 cells, hydroxyurea […]
row,Compound,EC50
1,CNc1nc2ccc(Cl)cc2n1-c1nc2c(c(C3(S(C)(=O)=O)CC3)n1)OC[C@@H]1COCCN21 [Example 87],> 1 µM
2,CNc1nc2cc(F)ccc2n1-c1nc2c(c(C3(S(C)(=O)=O)CCC3)n1)OC[C@@H]1COCCN21 [Example 96],0.1 to 1 µM
3,CC(C)(c1nc(-n2c(N3CCOCC3)nc3ccccc32)nc2c1OC[C@@H]1COCCN21)S(C)(=O)=O [Example 73],> 1 µM
4,CNc1nc2ccc(Cl)cc2n1-c1nc2c(c(C(C)(C)S(C)(=O)=O)n1)OC[C@@H]1COCCN21 [Example 81],> 1 µM
5,CC(C)(c1nc(-n2c(N)nc3ccccc32)nc2c1OC[C@@H]1COCCN21)S(C)(=O)=O [Example 70],0.1 to 1 µM
6,CNc1nc2cc(Cl)ccc2n1-c1nc2c(c(C3(S(C)(=O)=O)CC3)n1)OC[C@@H]1COCCN21 [Example 86],> 1 µM
